{"source": "PubChem BioAssay AID2060347", "about": "(Molecular Pharmacology Branch, DTP, NCI, 2025)", "test_system": "817829-284-R-J1-PDC spheroids with HUVEC/MSC, viability", "test": "Anticancer human tumor 817829-284-R-J1-PDC patient-derived colon adenocarcinoma cell line growth inhibition [TAK]", "settings": "for IC50: curve of first compound; for viability, T/C: stronger effect = lower value", "description": "Combinatorial screen of targeted agents with TAK-243 and ipatasertib in multi-cell type tumor spheroids\nA high-throughput screen of multi-cell type tumor spheroids was designed to identify active combinations of targeted small molecules and TAK-243 or ipatasertib. Complex spheroids include a stromal component modeled by human endothelial cells (HUVEC) and fibroblasts modeled by human mesenchymal stem cells (MSCs). The concentration ranges selected for each drug and investigational agent were based upon clinically achievable concentrations if the clinical Cmax of the agent was known.\nCompounds. The drugs and investigational agents: TAK-243 (785004), ipatasertib (767898), everolimus (733504), selumetinib (741078), bortezomib (756655), trametinib (758246), ixazomib (758254), vemurafenib (761431), dabrafenib (764134), sapanisertib (764658), alpelisib (765974), and copanlisib (816437), were obtained from the National Cancer Institute (NCI) Developmental Therapeutics Program Chemical Repository. The FDA-approved anticancer drug set is available from the NCI Developmental Therapeutics Program. […] The stock solutions were prepared in dimethyl sulfoxide (DMSO, Sigma-Aldrich, St. Louis, MO, cat. D2650) at 800-fold the tested concentration and stored at -70 degrees C prior to their use. All drugs and investigational agents were tested over a range starting from a high concentration at or near the clinical Cmax and decreasing in half-log increments. If the clinical Cmax for an agent had not been determined, the highest concentration tested was 10 microM.\nNCI60 Cell Culture. NCI60 cell lines were obtained from the NCI Developmental Therapeutics Program Tumor Repository. For each lot of cells, the Repository performed Applied Biosystems AmpFLSTR Identifiler testing with PCR amplification to confirm consistency with the published Identifier STR profile for each cell line. Cells were kept in continuous culture for no more than 20 passages. The optimal seeding densities for each of the cell lines at each time point assessed were determined prior to performing the concentration response studies. Briefly, the NCI60 human tumor lines were grown as monolayers in RPMI 1640 medium supplemented with 10% FBS and 2 mmol/L L-glutamine.\nAn additional 2 lines were from the NCI60 cell line panel including melanomas, MALME-3M and SK-MEL-2. Pooled donor human umbilical vein endothelial cells (HUVEC, Lonza, cat. CC-2519) and human mesenchymal stem cells (hMSC, Lonza, cat. PT-2501) were purchased from Lonza (Walkersville, MD).\nPDMR cell lines were grown in complete medium (DC medium): Dulbecco's modified Eagle's medium (DMEM)/F12 supplemented with 5% fetal bovine serum (FBS), 2 mM L-glutamine, 100 U/mL penicillin and 100 µg/ml streptomycin, 0.4 µg/ml hydrocortisone, 10 ng/ml epidermal growth factor (EGF) recombinant human protein, 24 µg/mL adenine, and 0.1 mg/mL primocin. During culture from frozen stock vials, PDMR cells were cultured in the same medium containing 10 µM Y-27632 (see Table 3). The PDCs were cultured in complete DMEM/F12 media without 10 microM Y-27632 dihydrochloride for at least two passages prior to the screen. The pooled donor HUVEC and hMSC were cultured in endothelial cell growth medium 2 (PromoCell, Heidelberg, Germany, cat. C-22011) and mesenchymal stem cell growth medium 2 (PromoCell, cat. C-28009), respectively. For all experiments, HUVEC and hMSC were used at passages </=5.\nFor the pre-screen, cell seeding densities were determined from a titration spanning the range from 5,000 to 313 cells per well. The mct-spheroids including 60% malignant cells, 25% HUVEC and 15% MSC dispensed as a mixture into U-bottom Ultra-Low Attachment 384-well plates (Corning, NY)\nHigh-throughput Drug Combination Screening.\nPrior to their inoculation into 384-well plates, malignant cells, HUVEC, and hMSC were removed from T flasks using TrypLE express (Thermo Fisher Scientific, cat. 12605036) and harvested by centrifugation for 5 min at 233 x g. […]", "data": [{"compound": "CC(C)CC(NC(=O)C(Cc1ccccc1)NC(=O)c1cnccn1)B(O)O", "note": "(stereo not given) + CC(C)NCC(C(=O)N1CCN(c2ncnc3c2C(C)CC3O)CC1)c1ccc(Cl)cc1", "values": [{"measurement": "IC50", "setting": "second compound 0.3 µM", "result": 4.91, "unit": "nM"}, {"measurement": "IC50", "setting": "second compound 0.949 µM", "result": 4.23, "unit": "nM"}, {"measurement": "IC50", "setting": "second compound 3 µM", "result": "< 0.0316", "unit": "nM"}, {"measurement": "IC50", "setting": "second compound 9.49 µM", "result": "< 0.0316", "unit": "nM"}, {"measurement": "IC50", "setting": "second compound 30 µM", "result": "< 0.0316", "unit": "nM"}, {"measurement": "viability, T/C", "setting": "second compound 0.3 µM, first compound 31.6 pM", "result": 108, "unit": "%"}, {"measurement": "viability, T/C", "setting": "second compound 0.3 µM, first compound 0.0001 µM", "result": 104, "unit": "%"}, {"measurement": "viability, T/C", "setting": "second compound 0.3 µM, first compound 0.000316 µM", "result": 105, "unit": "%"}, {"measurement": "viability, T/C", "setting": "second compound 0.3 µM, first compound 0.001 µM", "result": 100, "unit": "%"}, {"measurement": "viability, T/C", "setting": "second compound 0.3 µM, first compound 0.00316 µM", "result": 80.7, "unit": "%"}, {"measurement": "viability, T/C", "setting": "second compound 0.3 µM, first compound 0.01 µM", "result": 0.6, "unit": "%"}, {"measurement": "viability, T/C", "setting": "second compound 0.949 µM, first compound 31.6 pM", "result": 88, "unit": "%"}, {"measurement": "viability, T/C", "setting": "second compound 0.949 µM, first compound 0.0001 µM", "result": 60.8, "unit": "%"}, {"measurement": "viability, T/C", "setting": "second compound 0.949 µM, first compound 0.000316 µM", "result": 64.6, "unit": "%"}, {"measurement": "viability, T/C", "setting": "second compound 0.949 µM, first compound 0.001 µM", "result": 77.2, "unit": "%"}, {"measurement": "viability, T/C", "setting": "second compound 0.949 µM, first compound 0.00316 µM", "result": 66.7, "unit": "%"}, {"measurement": "viability, T/C", "setting": "second compound 0.949 µM, first compound 0.01 µM", "result": 0.35, "unit": "%"}, {"measurement": "viability, T/C", "setting": "second compound 3 µM, first compound 31.6 pM", "result": 29.4, "unit": "%"}, {"measurement": "viability, T/C", "setting": "second compound 3 µM, first compound 0.0001 µM", "result": 22.9, "unit": "%"}, {"measurement": "viability, T/C", "setting": "second compound 3 µM, first compound 0.000316 µM", "result": 29.9, "unit": "%"}, {"measurement": "viability, T/C", "setting": "second compound 3 µM, first compound 0.001 µM", "result": 22.3, "unit": "%"}, {"measurement": "viability, T/C", "setting": "second compound 3 µM, first compound 0.00316 µM", "result": 19.9, "unit": "%"}, {"measurement": "viability, T/C", "setting": "second compound 3 µM, first compound 0.01 µM", "result": 0.2, "unit": "%"}, {"measurement": "viability, T/C", "setting": "second compound 9.49 µM, first compound 31.6 pM", "result": 12.7, "unit": "%"}, {"measurement": "viability, T/C", "setting": "second compound 9.49 µM, first compound 0.0001 µM", "result": 13.2, "unit": "%"}, {"measurement": "viability, T/C", "setting": "second compound 9.49 µM, first compound 0.000316 µM", "result": 11.6, "unit": "%"}, {"measurement": "viability, T/C", "setting": "second compound 9.49 µM, first compound 0.001 µM", "result": 13.6, "unit": "%"}, {"measurement": "viability, T/C", "setting": "second compound 9.49 µM, first compound 0.00316 µM", "result": 8.78, "unit": "%"}, {"measurement": "viability, T/C", "setting": "second compound 9.49 µM, first compound 0.01 µM", "result": 0.15, "unit": "%"}, {"measurement": "viability, T/C", "setting": "second compound 30 µM, first compound 31.6 pM", "result": 8.2, "unit": "%"}, {"measurement": "viability, T/C", "setting": "second compound 30 µM, first compound 0.0001 µM", "result": 8.27, "unit": "%"}, {"measurement": "viability, T/C", "setting": "second compound 30 µM, first compound 0.000316 µM", "result": 10.2, "unit": "%"}, {"measurement": "viability, T/C", "setting": "second compound 30 µM, first compound 0.001 µM", "result": 9.25, "unit": "%"}, {"measurement": "viability, T/C", "setting": "second compound 30 µM, first compound 0.00316 µM", "result": 6.13, "unit": "%"}, {"measurement": "viability, T/C", "setting": "second compound 30 µM, first compound 0.01 µM", "result": 0.2, "unit": "%"}]}, {"compound": "Cn1cnc2c(F)c(Nc3ccc(Br)cc3Cl)c(C(=O)NOCCO)cc21", "note": "+ CC(C)NCC(C(=O)N1CCN(c2ncnc3c2C(C)CC3O)CC1)c1ccc(Cl)cc1", "values": [{"measurement": "IC50", "setting": "second compound 0.3 µM", "result": 11.5, "unit": "nM"}, {"measurement": "IC50", "setting": "second compound 0.949 µM", "result": "< 9.49", "unit": "nM"}, {"measurement": "IC50", "setting": "second compound 3 µM", "result": "< 9.49", "unit": "nM"}, {"measurement": "IC50", "setting": "second compound 9.49 µM", "result": "< 9.49", "unit": "nM"}, {"measurement": "IC50", "setting": "second compound 30 µM", "result": "< 9.49", "unit": "nM"}, {"measurement": "viability, T/C", "setting": "second compound 0.3 µM, first compound 0.00949 µM", "result": 53.8, "unit": "%"}, {"measurement": "viability, T/C", "setting": "second compound 0.3 µM, first compound 0.03 µM", "result": 36.5, "unit": "%"}, {"measurement": "viability, T/C", "setting": "second compound 0.3 µM, first compound 0.0949 µM", "result": 40.4, "unit": "%"}, {"measurement": "viability, T/C", "setting": "second compound 0.3 µM, first compound 0.3 µM", "result": 23.4, "unit": "%"}, {"measurement": "viability, T/C", "setting": "second compound 0.3 µM, first compound 0.949 µM", "result": 17.4, "unit": "%"}, {"measurement": "viability, T/C", "setting": "second compound 0.3 µM, first compound 3 µM", "result": 9.69, "unit": "%"}, {"measurement": "viability, T/C", "setting": "second compound 0.949 µM, first compound 0.00949 µM", "result": 17.6, "unit": "%"}, {"measurement": "viability, T/C", "setting": "second compound 0.949 µM, first compound 0.03 µM", "result": 15.9, "unit": "%"}, {"measurement": "viability, T/C", "setting": "second compound 0.949 µM, first compound 0.0949 µM", "result": 13.8, "unit": "%"}, {"measurement": "viability, T/C", "setting": "second compound 0.949 µM, first compound 0.3 µM", "result": 12.9, "unit": "%"}, {"measurement": "viability, T/C", "setting": "second compound 0.949 µM, first compound 0.949 µM", "result": 12.6, "unit": "%"}, {"measurement": "viability, T/C", "setting": "second compound 0.949 µM, first compound 3 µM", "result": 10.6, "unit": "%"}, {"measurement": "viability, T/C", "setting": "second compound 3 µM, first compound 0.00949 µM", "result": 9.45, "unit": "%"}, {"measurement": "viability, T/C", "setting": "second compound 3 µM, first compound 0.03 µM", "result": 10.2, "unit": "%"}, {"measurement": "viability, T/C", "setting": "second compound 3 µM, first compound 0.0949 µM", "result": 8.2, "unit": "%"}, {"measurement": "viability, T/C", "setting": "second compound 3 µM, first compound 0.3 µM", "result": 9.01, "unit": "%"}, {"measurement": "viability, T/C", "setting": "second compound 3 µM, first compound 0.949 µM", "result": 8.23, "unit": "%"}, {"measurement": "viability, T/C", "setting": "second compound 3 µM, first compound 3 µM", "result": 6.8, "unit": "%"}, {"measurement": "viability, T/C", "setting": "second compound 9.49 µM, first compound 0.00949 µM", "result": 6.1, "unit": "%"}, {"measurement": "viability, T/C", "setting": "second compound 9.49 µM, first compound 0.03 µM", "result": 6.4, "unit": "%"}, {"measurement": "viability, T/C", "setting": "second compound 9.49 µM, first compound 0.0949 µM", "result": 5.55, "unit": "%"}, {"measurement": "viability, T/C", "setting": "second compound 9.49 µM, first compound 0.3 µM", "result": 5.64, "unit": "%"}, {"measurement": "viability, T/C", "setting": "second compound 9.49 µM, first compound 0.949 µM", "result": 4.81, "unit": "%"}, {"measurement": "viability, T/C", "setting": "second compound 9.49 µM, first compound 3 µM", "result": 4.12, "unit": "%"}, {"measurement": "viability, T/C", "setting": "second compound 30 µM, first compound 0.00949 µM", "result": 4.35, "unit": "%"}, {"measurement": "viability, T/C", "setting": "second compound 30 µM, first compound 0.03 µM", "result": 3.94, "unit": "%"}, {"measurement": "viability, T/C", "setting": "second compound 30 µM, first compound 0.0949 µM", "result": 3.58, "unit": "%"}, {"measurement": "viability, T/C", "setting": "second compound 30 µM, first compound 0.3 µM", "result": 3.91, "unit": "%"}, {"measurement": "viability, T/C", "setting": "second compound 30 µM, first compound 0.949 µM", "result": 2.71, "unit": "%"}, {"measurement": "viability, T/C", "setting": "second compound 30 µM, first compound 3 µM", "result": 2.38, "unit": "%"}]}]}
